“Also recorded” adds a separate entry of the source.
Columns and labels:
[1] = biological target: T1, HLA-A2.1 (Homo sapiens, UniProt P04439, D140Y/D185E/D98H/E176V/E277Q/G131W/G231S/I119V/I121R/I166T/I218V/L300P/L318F/N151K/N90K/P208A/P217A/Q86G/Q94H/R138H/R169H/T345S); experiment: T2 binding assay: peptide stabilisation of cell-surface HLA-A2.1 (flow cytometry, BB7.2); conditions: T2 cells; for FI0.5, the peptide concentration that increases HLA-A2.1 expression by 50% over no peptide control: overnight, with β2-microglobulin
T1 construct: The T2 cell line is deficient in TAP1 and TAP2 transporter proteins and expresses low levels of HLA-A2.1; endogenous in cells; host or cells: T2 cell line (TAP1/TAP2-deficient)
Protocol: FIGS. 1A and 1B. Binding of C7A2 Alanine (A) and non-Alanine (B)-substituted peptides to TAP-deficient HLA-A2.1. T2 cells were incubated overnight in a 96 well plate in CTM with 10 Φg/ml human β2-microglobulin and different peptide concentrations. The next day, cells were washed and HLA-A2.1 expression was assessed by flow cytometry using the anti HLA-A2 BB7.2 monoclonal antibody and FITC labeled goat anti mouse Ig. Results are expressed as fluorescence index (FI), calculated according to the formula: (mean fluorescence with peptide−mean fluorescence without peptide)/mean fluorescence without peptide. Background fluorescence without BB7.2 was subtracted for each individual value. FI0.5 represents those peptide concentrations that increase HLA-A2.1 expression by 50% over the no peptide control and were calculated from the titration curves for each particular peptide.
Peptide binding to HLA molecules was measured using the T2 mutant cell line according to a protocol previously described (53). T2 cells (3×10/well) were incubated overnight in 96-well plates with culture medium (1:1 mixture of RPMI 1640: EHAA containing 2.5% FBS, 100 U/ml penicillin, 100 Φg/ml streptomycin) with 10 Φg/ml β2-microglobulin (Sigma Chemical Co; St. Louis, Mo.) and different peptide concentrations. The next day, cells were washed twice with cold PBS containing 2% FBS and incubated for 30 min at 4 EC with anti HLA-A2.1 BB7.2 monoclonal antibody (1/80 dilution from hybridoma supernatant) and 5 Φg/ml FITC-labeled goat anti mouse Ig (Pharmingen; San Diego, Calif.). Cells were washed twice after each incubation and HLA-A2.1 expression was measured by flow cytometry on a FACScan (Becton Dickinson). HLA-A2.1 expression was quantified as fluorescence index (FI) according to the formula: FI=(mean fluorescence with peptide—mean fluorescence without peptide)/mean fluorescence without peptide. Background fluorescence without BB7.2 antibody was subtracted for each individual value. In order to compare the different peptides, FI0.5, the peptide concentration that increases HLA-A2.1 expression by 50% over no peptide control background, was calculated from the titration curve for each peptide.
The binding affinity of wild-type C7A2 peptide (C7A2-WT) was evaluated with a T2 binding assay (53), which measures the cell surface stabilization of HLA-A2.1 molecules after incubation with peptide. In order to compare the different peptides, a fluorescence index value of 0.5 (FI0.5), the peptide concentration that increases HLA-A2.1 expression by 50%, was chosen as a way to compare titrations of the peptides and relative affinity for MHC molecules. Using this method, FI0.5 of 10 ΦM was calculated for C7A2-WT.

[2] = system: human CTL line ViT2; experiment: Recognition of C7A2-variant peptides by human CTL line ViT2 (51Cr release, C1R.A2.1 targets); type: cell-based; conditions: for Recognition by human CTL line (lysis of peptide-sensitized target cells): E/T 5/1, peptide titration
[3] = system: transgenic AAD mouse CTL lines AAD.10 and AAD.1; experiment: Recognition of C7A2-variant peptides by AAD transgenic mouse CTL lines (51Cr release, C1R.AAD targets); type: cell-based; conditions: lines AAD.10 and AAD.1, C1R.AAD targets, E/T 10/1
[4] = system: short term CTL lines from AAD transgenic mice; conditions: C1R.AAD targets titrated with C7A2-WT, E:T 10:1
Text: FIG. 7. […] Two weeks later, mice were boosted under the same conditions and 10-14 days after the boost, spleen cells were removed and stimulated in vitro with 10 ΦM CTL peptide-pulsed spleen cells.

[5] = system: A2Kb transgenic mice; experiment: Induction of CTL immune response against C7A2-WT in A2Kb transgenic mice; type: in vivo, mouse; conditions: 50 nmol, E/T 120:1 for C7A2-WT, 70:1 for 8A
Text: FIG. 6. […] Two weeks later, mice were boosted under the same conditions and 10-14 days after the boost, spleen cells were removed and stimulated in vitro with 10 ΦM CTL peptide-pulsed spleen cells.

[6] = system: AAD transgenic mice; conditions: 50 nmol, targets with 10 ΦM peptide
Protocol: (§1) FIGS. 8A and 8B. […] AAD (A) and A2Kb (B) transgenic mice were immunized with 50 nmol CTL epitope 8A plus 50 nmol HBVc 128-140 helper epitope in IFA. Two weeks later, mice were boosted under the same conditions and 10-14 days after the boost, spleen cells were removed and stimulated in vitro with 10 ΦM CTL peptide-pulsed spleen cells. After two weeks of in vitro stimulation, a CTL assay was performed with target cells (Con A blasts) incubated with the different peptides at 10 ΦM.
(§2) This peptide is common in viral isolates from HCV genotypes 2a and 2b (56,57).

[7] = system: A2Kb transgenic mice; conditions: 50 nmol, targets with 10 ΦM peptide
Protocol: as §1, §2

[8] = system: AAD transgenic mice; experiment: Induction of CTL immune response against C7A2-WT in AAD transgenic mice; type: in vivo, mouse; conditions: 50 or 15 nmol CTL epitope; for CTL response to C7A2-WT after immunization: targets pulsed with C7A2-WT
Text: FIGS. 5A and 5B. […] Two weeks later, mice were boosted under the same conditions and 10-14 days after the boost, spleen cells were removed and stimulated in vitro with 10 ΦM CTL peptide-pulsed spleen cells.

[9] = system: AAD transgenic mice; experiment: In vivo immunogenicity of C7A2-derived peptides in AAD transgenic mice (CTL assay); design: species or system mouse; conditions: 50 nmol CTL epitope plus helper epitope, GM-CSF, IL-12 in IFA; targets pulsed with immunizing peptide

Substance	FI0.5, the peptide concentration that increases HLA-A2.1 expression by 50% over no peptide control [1]	Recognition by human CTL line (lysis of peptide-sensitized target cells) [2]	Recognition by AAD mouse CTL lines (sensitization of target cells) [3]	C7A2-WT concentration for comparable killing, CTL raised against 8A versus CTL raised against C7A2-WT [4]	CTL immune response after immunization [5]	Cross-recognition of peptide 8V by CTL induced by immunization [6]	Cross-recognition of peptide 8V by CTL induced by immunization [7]	Binding to HLA-A2.1 (in words, compared with C7A2-WT) [1]	CTL response to 8A after immunization ([8]; targets pulsed with 8A)	CTL response to C7A2-WT after immunization [8]	Titration concentration relative to C7A2-WT ([2]; human CTL line)	Induction of CTL response by immunization [9]
8V: C7A2 peptide with position 8 L replaced by V; sequence common in HCV genotypes 2a and 2b (DLMGYIPVV) [Peptide 8V, reference compound]	15 ΦM	behaved similarly to C7A2-WT	recognized at higher concentrations than determined for C7A2-WT									
DLMGYIPAV [Peptide 8A]	around 2 ΦM	higher levels of lysis than C7A2-WT	able to sensitize target cells in a concentration range around that of C7A2-WT	more than 100 fold lower	higher level of response	recognize peptide 8V	recognize peptide 8V	higher affinity; also recorded: bind at lower concentrations than C7A2-WT	positive responses to 8A itself	strong responses to C7A2-WT	10 fold lower concentrations	able to induce clear CTL responses; also recorded: induced higher levels of lysis
DLMGYIPLV [Peptide C7A2-WT, naturally occurring peptide at positions 132-140 in the HCV core polypeptide, reference compound]	10 ΦM				low response					two of the four animals		able to induce clear CTL responses
